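Interpolation was linear, between the two tested concentrations surrounding the appropriate level; five concentrations were tested over 48 hours in 96-well plates. GI50 = concentration required for 50% inhibition of growth. Definition used: TGI = concentration required for complete inhibition of growth.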
Legend:
Test in all cases: growth of human tumour cells (NCI), 48 h
SK-OV-3 ovarian = system: SK-OV-3 ovarian
KM12 colon = system: KM12 colon
SNB-75 CNS = system: SNB-75 CNS
NCI/ADR-RES ovarian = system: NCI/ADR-RES ovarian
CAKI-1 renal = system: CAKI-1 renal
OVCAR-4 ovarian = system: OVCAR-4 ovarian
M14 melanoma = system: M14 melanoma
OVCAR-5 ovarian = system: OVCAR-5 ovarian
SNB-19 CNS = system: SNB-19 CNS
UACC-257 melanoma = system: UACC-257 melanoma
SW-620 colon = system: SW-620 colon
UACC-62 melanoma = system: UACC-62 melanoma
SK-MEL-28 melanoma = system: SK-MEL-28 melanoma
NCI-H460 lung = system: NCI-H460 lung
HCT-116 colon = system: HCT-116 colon
HL-60(TB) leukemia = system: HL-60(TB) leukemia
SK-MEL-5 melanoma = system: SK-MEL-5 melanoma
SF-268 CNS = system: SF-268 CNS
T-47D breast = system: T-47D breast
RPMI-8226 leukemia = system: RPMI-8226 leukemia
SR leukemia = system: SR leukemia
K-562 leukemia = system: K-562 leukemia
MOLT-4 leukemia = system: MOLT-4 leukemia
BT-549 breast = system: BT-549 breast
HOP-92 NSCLC = system: HOP-92 NSCLC
RXF 393 renal = system: RXF 393 renal
U251 CNS = system: U251 CNS
HOP-62 NSCLC = system: HOP-62 NSCLC
SF-295 CNS = system: SF-295 CNS
EKVX NSCLC = system: EKVX NSCLC
HCC-2998 colon = system: HCC-2998 colon
MDA-MB-231 breast = system: MDA-MB-231 breast
MDA-MB-435 = system: MDA-MB-435
SF-539 CNS = system: SF-539 CNS
A498 renal = system: A498 renal
IGROV1 ovarian = system: IGROV1 ovarian
LOX IMVI melanoma = system: LOX IMVI melanoma
HS 578T breast = system: HS 578T breast
CCRF-CEM leukemia = system: CCRF-CEM leukemia
MCF7 breast = system: MCF7 breast
HCT-15 colon = system: HCT-15 colon
NCI-H522 lung = system: NCI-H522 lung
SK-MEL-2 melanoma = system: SK-MEL-2 melanoma
HT29 colon = system: HT29 colon
PC-3 prostate = system: PC-3 prostate
A549 NSCLC = system: A549 NSCLC
DU-145 prostate = system: DU-145 prostate
TK-10 renal = system: TK-10 renal
786-0 renal = system: 786-0 renal
MALME-3M melanoma = system: MALME-3M melanoma
UO-31 renal = system: UO-31 renal
OVCAR-8 ovarian = system: OVCAR-8 ovarian
NCI-H226 lung = system: NCI-H226 lung
ACHN renal = system: ACHN renal
COLO 205 colon = system: COLO 205 colon
SN12C renal = system: SN12C renal

## CCNC(=O)Oc1ccc(/C(=C(/C)c2ccc(Cl)cc2)c2ccc(OCCN3CCCCCC3)cc2)cc1
SK-OV-3 ovarian
  GI50: 1.87 µM
  TGI: 3.7 µM
KM12 colon
  GI50: 2.63 µM
  TGI: 6.8 µM
SNB-75 CNS
  GI50: 1.99 µM
  TGI: 4.02 µM
NCI/ADR-RES ovarian
  GI50: 1.84 µM
  TGI: 3.75 µM
CAKI-1 renal
  GI50: 1.64 µM
  TGI: 3.09 µM
OVCAR-4 ovarian
  GI50: 1.96 µM
  TGI: 4.55 µM
M14 melanoma
  GI50: 1.7 µM
  TGI: 3.13 µM
OVCAR-5 ovarian
  GI50: 1.99 µM
  TGI: 4.38 µM
SNB-19 CNS
  GI50: 2.5 µM
  TGI: 6.88 µM
UACC-257 melanoma
  GI50: 1.71 µM
  TGI: 3.3 µM
SW-620 colon
  GI50: 1.71 µM
  TGI: 3.22 µM
UACC-62 melanoma
  GI50: 1.79 µM
  TGI: 3.28 µM
SK-MEL-28 melanoma
  GI50: 1.74 µM
  TGI: 3.18 µM
NCI-H460 lung
  GI50: 1.75 µM
  TGI: 3.24 µM
HCT-116 colon
  GI50: 1.62 µM
  TGI: 3 µM
HL-60(TB) leukemia
  GI50: 1.82 µM
  TGI: 4.45 µM
SK-MEL-5 melanoma
  GI50: 1.68 µM
  TGI: 3.05 µM
SF-268 CNS
  GI50: 2.2 µM
  TGI: 5.54 µM
T-47D breast
  GI50: 1.39 µM
  TGI: 4.19 µM
RPMI-8226 leukemia
  GI50: 1.8 µM
  TGI: 3.93 µM
SR leukemia
  GI50: 1.35 µM
  TGI: 4.91 µM
K-562 leukemia
  GI50: 1.39 µM
  TGI: 3.95 µM
MOLT-4 leukemia
  GI50: 2.1 µM
  TGI: 6.06 µM
BT-549 breast
  GI50: 1.74 µM
  TGI: 3.14 µM
HOP-92 NSCLC
  GI50: 1.41 µM
  TGI: 2.86 µM
RXF 393 renal
  GI50: 1.46 µM
  TGI: 2.93 µM
U251 CNS
  GI50: 1.49 µM
  TGI: 2.86 µM
HOP-62 NSCLC
  GI50: 1.55 µM
  TGI: 3 µM
SF-295 CNS
  GI50: 1.6 µM
  TGI: 2.97 µM
EKVX NSCLC
  GI50: 1.91 µM
  TGI: 4.77 µM
HCC-2998 colon
  GI50: 1.72 µM
  TGI: 3.16 µM
MDA-MB-231 breast
  GI50: 1.84 µM
  TGI: 3.48 µM
MDA-MB-435
  GI50: 1.77 µM
  TGI: 3.24 µM
SF-539 CNS
  GI50: 1.72 µM
  TGI: 3.14 µM
A498 renal
  GI50: 1.75 µM
  TGI: 3.78 µM
IGROV1 ovarian
  GI50: 1.8 µM
  TGI: 3.41 µM
LOX IMVI melanoma
  GI50: 1.69 µM
  TGI: 3.12 µM
HS 578T breast
  GI50: 1.95 µM
  TGI: 4.26 µM
CCRF-CEM leukemia
  GI50: 1.64 µM
  TGI: 9.81 µM
MCF7 breast
  GI50: 0.404 µM
  TGI: 2.32 µM
HCT-15 colon
  GI50: 1.5 µM
  TGI: 2.91 µM
NCI-H522 lung
  GI50: 1.78 µM
  TGI: 3.46 µM
SK-MEL-2 melanoma
  GI50: 1.77 µM
  TGI: 3.33 µM
HT29 colon
  GI50: 1.7 µM
  TGI: 3.27 µM
PC-3 prostate
  GI50: 1.78 µM
  TGI: 3.53 µM
A549 NSCLC
  GI50: 1.7 µM
  TGI: 3.27 µM
DU-145 prostate
  GI50: 2.29 µM
  TGI: 5.37 µM
TK-10 renal
  GI50: 2.27 µM
  TGI: 6.75 µM
786-0 renal
  GI50: 1.61 µM
  TGI: 3.02 µM
MALME-3M melanoma
  GI50: 1.78 µM
  TGI: 3.42 µM
UO-31 renal
  GI50: 1.44 µM
  TGI: 2.79 µM
OVCAR-8 ovarian
  GI50: 1.78 µM
  TGI: 3.4 µM
NCI-H226 lung
  GI50: 2.61 µM
  TGI: 8.2 µM
ACHN renal
  GI50: 1.75 µM
  TGI: 3.2 µM
COLO 205 colon
  GI50: 1.74 µM
  TGI: 3.18 µM
SN12C renal
  GI50: 1.67 µM
  TGI: 3.18 µM

From PubChem BioAssay (NCI)
